From patent publication US11198869B2, “Angelman syndrome antisense treatment” (The Texas A&M University System, priority 2017, dated 2021) come the findings set out here.

One series has as its system SNORD115. Put plainly: SNORD115 steady state RNA (qRT-PCR) in GABAergic iPSC-derived neurons. The following applies: 10-point dose curve 1 nM-30 μM; 14 DIV to 20 DIV. In general terms: Real-time PCR tracks product formation cycle by cycle.
For the next series, the system named is UBE3A-AS. Put plainly: UBE3A-AS RNA levels in CNS regions of Cynomolgus macaque after intrathecal lumbar puncture (SYBR Green qRT-PCR). Format: in vivo, Cynomolgus macaque (Macaca fascicularis). The following applies: for UBE3A-AS RNA levels in CNS regions (in words) / Cohen's d, effect size on UBE3A-AS RNA levels in CNS: 10 mg single intrathecal bolus, 28 days; for Difference in UBE3A-AS RNA levels relative to vehicle: Cynomolgus macaque, single 10 mg intrathecal lumbar puncture, 28 days after treatment. The procedure: The ASO-4 and ASO-6 target regions are conserved across several non-human primate (NHP) species, thus enabling both safety and efficacy studies in a large animal model. To examine the efficacy of ASO-4.4.PS.L and ASO-6.1.PO-1.O in the central nervous system (CNS), ASOs were delivered to Cynomolgus macaques by intrathecal lumbar puncture. Animals were administered a single bolus injection of vehicle (0.9% saline, n=5), ASO-6.1.PO-1.O (10 mg, n=3), and ASO.4.4.PS.L (10 mg, n=3). Twenty-eight days following treatment, central nervous (CNS) tissues were collected and the steady state RNA levels of UBE3A-AS were measured.
NHP studies were performed at Northern Biomedical Research and Charles River Laboratories using protocols approved by the institutions respective Institutional Animal Care and Use Committees. Male and female Cynomolgus macaques (Macaca fascicularis) weighing 2-4 kg were anesthetized and single 1 mL dose of ASO or vehicle was administered via intrathecal lumbar puncture. The dosing solution was prepared by dissolution of lyophilized ASO in the vehicle control article (0.9% sodium chloride) and was filtered through a 0.2-μm filter. CNS and spinal cord samples were harvested, and the CNS was sectioned into 4-mm coronal slices. Tissue samples were flash frozen and stored at −80° C. until RNA isolation.
A 4 mm tissue punch was taken from each region of interest of which approximately half was used for RNA isolation. RNA isolation was performed using the Qiagen RNeasy Plus Mini kit (74136, Qiagen) with tissue disruption and lysis performed with 5 mm stainless steel beads in a TissueLyser II. The RNA was eluted in two volumes of 30 μl water, for a total elution volume of 60 μl. RNA was quantified using the Qubit with the RNA XR assay (Q33224, Thermo Fisher Scientific). cDNA was synthesized from 2 μg of input RNA using the High Capacity RNA-to-cDNA kit (4387406, Thermo Fisher Scientific) in a total reaction volume of 50 μl.
Cynomolgus macaque UBE3A-AS RNA levels were estimated using SYBR Green quantitative reverse-transcription PCR (qRT-PCR). Total reaction volume was 10 μl, including 2 μl of cDNA, 1× PowerUp SYBR Green Master mix (A25741, Thermo Fisher Scientific), and 500 nM of each primer (forward and reverse). Cycling conditions were 2 minutes at 50° C., 2 minutes at 95° C., and 40 cycles of 15 seconds at 95° C. and 1 minute at 60° C., with readings taken at the 60° C. step of every cycle. Reactions were run on a BIO-RAD T1000 CFX96 thermocycler, with internal control (PPIA, forward: […] (SEQ ID NO:503); reverse: […] (SEQ ID NO:504)) and target (UBE3A-AS, forward: […] (SEQ ID NO:505); reverse: […] (SEQ ID NO:506)) reactions performed separately. Data was retrieved and initial analysis was done with the BIORAD CFX Maestro software, with in depth statistical analyses performed with Excel and JMP.

The mark [1] stands for this setting: Frontal Cortex (Corona radiata).

As to `CC[C@@]1(O)C(=O)OCc2c1cc1n(c2=O)Cc2cc3c(CN(C)C)c(O)ccc3nc2-1` [Topotecan, reference compound], the “effect on SNORD115 RNA levels (in words)” value with SNORD115 is “significant effect on SNORD116, IPW, SNORD115, and SNORD109A/B RNA levels that was dose dependent”.

On to “A^L*G^L*A^L*a*t*g*g*c*a*c*a*t*c*t*5mC^L*T^L*T^L*G^L (NNNATGGCACATCTNNNN; LNA gapmer, PS, 5-methylcytosine, chemistry not fully specified) [ASO-4.4.PS.L]”, for which the “UBE3A-AS RNA levels in CNS regions (in words)” value in the series with UBE3A-AS was “reduced UBE3A-AS RNA in most CNS regions, with large effects in temporal lobe, primary motor cortex, pons, medulla, hippocampus, globus pallidus, frontal cortex (corona radiata), prefrontal cortex, and lumbar spinal cord”. The “Cohen's d, effect size on UBE3A-AS RNA levels in CNS” value in the series on UBE3A-AS (versus ASO-6.1.PO-1.O) was found to be 1.0; in the series with UBE3A-AS (versus Vehicle), 1.4. Moreover, the “Difference in UBE3A-AS RNA levels relative to vehicle” value with UBE3A-AS (Caudate Nucleus) was −0.21; in the series with UBE3A-AS (Cerebellum), −0.05; with UBE3A-AS (setting [1]) it was −0.62; with UBE3A-AS (Frontal cortex), −0.71; in the series on UBE3A-AS (Globus Pallidus), −0.38; in the series with UBE3A-AS (Hippocampus) it was −0.57. Also, the “Difference in UBE3A-AS RNA levels relative to vehicle” value in the series on UBE3A-AS (Medulla) was −0.32; with UBE3A-AS (Motor Cortex) it was −0.59; in the series with UBE3A-AS (Oculomotor Nucleus) it was −0.18; in the series with UBE3A-AS (Pons), −0.47; in the series with UBE3A-AS (Putamen), −0.04; with UBE3A-AS (Spinal Cord (Lumbar)), −0.87. Moreover, the “Difference in UBE3A-AS RNA levels relative to vehicle” value in the series with UBE3A-AS (Temporal Lobe) was −0.59; with UBE3A-AS (Thalamus), −0.20.

In the case of “C^O*U^O*G^O*G^O-t*g*t*c*a*a*c*a*a*g-C^O*C^O*A^O*A^o [ASO-6.1.PO-1.O]”, the “UBE3A-AS RNA levels in CNS regions (in words)” value in the series on UBE3A-AS was “reduced UBE3A-AS RNA levels in most CNS regions, with large effects observed in pons, oculomotor nucleus, and lumbar spinal cord”. The “Cohen's d, effect size on UBE3A-AS RNA levels in CNS” value in the series on UBE3A-AS (versus Vehicle) amounted to 0.3. In addition, the “Difference in UBE3A-AS RNA levels relative to vehicle” value was 0.10 in the series with UBE3A-AS (Caudate Nucleus); −0.11 with UBE3A-AS (Cerebellum); −0.08 in the series with UBE3A-AS (setting [1]); 0.01 with UBE3A-AS (Frontal cortex); 0.10 with UBE3A-AS (Globus Pallidus); −0.19 in the series on UBE3A-AS (Hippocampus). Also, the “Difference in UBE3A-AS RNA levels relative to vehicle” value in the series with UBE3A-AS (Medulla) is −0.24; in the series on UBE3A-AS (Motor Cortex) it was −0.19; in the series on UBE3A-AS (Oculomotor Nucleus), −0.37; in the series with UBE3A-AS (Pons), −0.27; in the series with UBE3A-AS (Putamen), 0.07; with UBE3A-AS (Spinal Cord (Lumbar)) it was −0.32. The entries for the “Difference in UBE3A-AS RNA levels relative to vehicle” value in the series on UBE3A-AS (Temporal Lobe) and in the series on UBE3A-AS (Thalamus) were 0.13 and −0.02, respectively.

On to “U^O*A^O*G^O*A^O*A^O*t*g*g*c*a*c*a*t*c*t*C^O*U^O*U^O*G^O*G^O [ASO-4]”, for which the “effect on SNORD115 RNA levels (in words)” value with SNORD115 is “significant effect on the RNA levels of IPW, SNORD115, and SNORD109A/B but not in a dose dependent manner”.
